Results published in patent US20230372498A1, “PLK1 SELECTIVE DEGRADATION INDUCING COMPOUND” (UPPTHERA, priority 2020, published 2023).
Where two headings read alike, the source gives them in different places.

Molecular target: T1, PLK1 (Homo sapiens, UniProt P53350)
T1 construct: endogenous in cells; host or cells: HeLa
Assay: PLK1 protein degradation in HeLa cells, Western blotting (PLK1/GAPDH ratio)
Format: cell-based
Details: 6 hours compound incubation; for DC50: measured only if the grade of Dmax is A or B; for Dmax: thymidine block and release, 10 points three-fold from 3 μM, PLK1 to GAPDH ratio
Outline: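 Thymidine-synchronised HeLa cells (2 mM, 24 h) released 4 h into complete medium, then treated 6 h with compound in 10-point 3-fold dilutions from 3 μM. RIPA lysates (15 μg protein) run on SDS-PAGE; PLK1 Western blot normalised to GAPDH.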

T1 sequence (P53350 whole entry): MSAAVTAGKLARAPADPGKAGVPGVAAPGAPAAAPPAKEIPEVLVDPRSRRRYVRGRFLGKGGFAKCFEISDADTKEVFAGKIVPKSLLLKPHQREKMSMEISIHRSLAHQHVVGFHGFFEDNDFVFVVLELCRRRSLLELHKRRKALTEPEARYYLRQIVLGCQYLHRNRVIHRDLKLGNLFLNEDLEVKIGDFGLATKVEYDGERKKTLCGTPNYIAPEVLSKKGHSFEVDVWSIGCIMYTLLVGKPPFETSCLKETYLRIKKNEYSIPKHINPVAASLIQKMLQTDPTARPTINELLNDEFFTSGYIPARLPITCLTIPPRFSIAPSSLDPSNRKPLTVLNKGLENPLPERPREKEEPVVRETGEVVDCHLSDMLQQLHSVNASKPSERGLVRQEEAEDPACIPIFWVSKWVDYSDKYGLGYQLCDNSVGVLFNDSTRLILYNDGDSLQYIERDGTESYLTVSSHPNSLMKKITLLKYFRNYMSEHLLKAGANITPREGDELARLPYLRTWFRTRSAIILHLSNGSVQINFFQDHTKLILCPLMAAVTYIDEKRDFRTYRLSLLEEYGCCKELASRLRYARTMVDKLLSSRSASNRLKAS

Row | Structure (SMILES) | DC50 [nM] | Dmax (read-out: Dmax) [%] | Dmax
1 | COc1cc(C(=O)N[C@H]2CCN(C(=O)CN3CCN(c4ccc5c(c4)C(=O)N(C4CCC(=O)NC4=O)C5=O)CC3)C2)c(F)cc1Nc1ncc2c(n1)N(C1CCCC1)CC(F)(F)C(=O)N2C (stereo partly drawn) [Compound 135, 4-((9-cyclopentyl-7,7-difluoro-5-methyl-6-oxo-6,7,8,9-tetrahydro-5H-pyrimido[4,5-b][1,4]diazepin-2-yl)amino)-N-((3S)-1-(2-(4-(2-(2,6-dioxopiperidin-3-yl)-1,3-dioxoisoindolin-5-yl)piperazin-1-yl)acetyl)pyrrolidin-3-yl)-2-fluoro-5-methoxybenzamide] | ≤ 50 | ≥ 80 | –
2 | COc1cc(C(=O)NC2CCN(CCOCCOCCOCCNC(=O)CNc3cccc4c3C(=O)N(C3CCC(=O)NC3=O)C4=O)CC2)c(F)cc1Nc1ncc2c(n1)N(C1CCCC1)CC(F)(F)C(=O)N2C (stereo not drawn) [Compound 30, 4-((9-cyclopentyl-7,7-difluoro-5-methyl-6-oxo-6,7,8,9-tetrahydro-5H-pyrimido[4,5-b][1,4]diazepin-2-yl)amino)-N-(1-(1-((2-(2,6-dioxopiperidin-3-yl)-1,3-dioxoisoindolin-4-yl)amino)-2-oxo-6,9,12-trioxa-3-azatetradecan-14-yl)piperidin-4-yl)-2-fluoro-5-methoxybenzamide] | ≤ 50 | ≥ 80 | –
3 | CN1C(=O)C(F)(F)CN(C2CCCC2)c2nc(Nc3ccc(C(=O)N[C@H]4CCN(C(=O)CCC(=O)N5CCN(c6ccc7c(c6)C(=O)N(C6CCC(=O)NC6=O)C7=O)CC5)C4)cc3)ncc21 (stereo partly drawn) [Compound 146, 4-((9-cyclopentyl-7,7-difluoro-5-methyl-6-oxo-6,7,8,9-tetrahydro-5H-pyrimido[4,5-b][1,4]diazepin-2-yl)amino)-N-((3S)-1-(4-(4-(2-(2,6-dioxopiperidin-3-yl)-1,3-dioxoisoindolin-5-yl)piperazin-1-yl)-4-oxobutanoyl)pyrrolidin-3-yl)benzamide] | – | < 60 | –
4 | COc1cc(C(=O)NC2CCN(CCOCCOCCOCCNC(=O)COc3cccc4c3C(=O)N(C3CCC(=O)NC3=O)C4=O)CC2)c(F)cc1Nc1ncc2c(n1)N(C1CCCC1)CC(F)(F)C(=O)N2C (stereo not drawn) [Compound 57, 4-((9-cyclopentyl-7,7-difluoro-5-methyl-6-oxo-6,7,8,9-tetrahydro-5H-pyrimido[4,5-b][1,4]diazepin-2-yl)amino)-N-(1-(1-((2-(2,6-dioxopiperidin-3-yl)-1,3-dioxoisoindolin-4-yl)oxy)-2-oxo-6,9,12-trioxa-3-azatetradecan-14-yl)piperidin-4-yl)-2-fluoro-5-methoxybenzamide] | ≤ 500 | 60 to 80 | –
5 | COc1cc(C(=O)NC2CCN(CCCCCCCCCNc3cccc4c3C(=O)N(C3CCC(=O)NC3=O)C4=O)CC2)c(F)cc1Nc1ncc2c(n1)N(C1CCCC1)CC(F)(F)C(=O)N2C (stereo not drawn) [Compound 13] | ≤ 500 | – | B (B: Dmax is 80% or less and 60% or more)
6 | COc1cc(C(=O)NC2CCN(CCOCCOCC(=O)N[C@H](C(=O)N3C[C@H](O)C[C@H]3C(=O)NCc3ccc(-c4scnc4C)cc3)C(C)(C)C)CC2)c(F)cc1Nc1ncc2c(n1)N(C1CCCC1)CC(F)(F)C(=O)N2C [Compound 80] | – | < 60 | –
7 | COc1cc(C(=O)N[C@H]2CCN(C(=O)CN3CCN(c4cccc5c4C(=O)N(C4CCC(=O)NC4=O)C5=O)CC3)C2)c(F)cc1Nc1ncc2c(n1)N(C1CCCC1)CC(F)(F)C(=O)N2C (stereo partly drawn) [Compound 130] | ≤ 50 | ≥ 80 | –
8 | COc1cc(C(=O)NC2CCN(C(=O)COCCOCCOCCOCCNc3cccc4c3C(=O)N(C3CCC(=O)NC3=O)C4=O)CC2)c(F)cc1Nc1ncc2c(n1)N(C1CCCC1)CC(F)(F)C(=O)N2C (stereo not drawn) [Compound 34, 4-((9-cyclopentyl-7,7-difluoro-5-methyl-6-oxo-6,7,8,9-tetrahydro-5H-pyrimido[4,5-b][1,4]diazepin-2-yl)amino)-N-(1-(14-((2-(2,6-dioxopiperidin-3-yl)-1,3-dioxoisoindolin-4-yl)amino)-3,6,9,12-tetraoxatetradecanoyl)piperidin-4-yl)-2-fluoro-5-methoxybenzamide] | ≤ 50 | ≥ 80 | –
9 | COc1cc(C(=O)NC2CCN(Cc3cn(CCOCCNc4cccc5c4C(=O)N(C4CCC(=O)NC4=O)C5=O)nn3)CC2)c(F)cc1Nc1ncc2c(n1)N(C1CCCC1)CC(F)(F)C(=O)N2C (stereo not drawn) [Compound 44, 4-((9-cyclopentyl-7,7-difluoro-5-methyl-6-oxo-6,7,8,9-tetrahydro-5H-pyrimido[4,5-b][1,4]diazepin-2-yl)amino)-N-(1-((1-(2-(2-((2-(2,6-dioxopiperidin-3-yl)-1,3-dioxoisoindolin-4-yl)amino)ethoxy)ethyl)-1H-1,2,3-triazol-4-yl)methyl)piperidin-4-yl)-2-fluoro-5-methoxybenzamide] | ≤ 50 | ≥ 80 | –
10 | COc1cc(C(=O)NCCCCCc2cccc3c2CN(C2CCC(=O)NC2=O)C3=O)c(F)cc1Nc1ncc2c(n1)N(C1CCCC1)CC(F)(F)C(=O)N2C (stereo not drawn) [Example 165, 4-((9-cyclopentyl-7,7-difluoro-5-methyl-6-oxo-6,7,8,9-tetrahydro-5H-pyrimido[4,5-b][1,4]diazepin-2-yl)amino)-N-(5-(2-(2,6-dioxopiperidin-3-yl)-1-oxoisoindolin-4-yl)pentyl)-2-fluoro-5-methoxybenzamide] | – | < 60 | –
11 | COc1cc(C(=O)NC2CCN(CCOCCCCCCCCOCCNc3cccc4c3C(=O)N(C3CCC(=O)NC3=O)C4=O)CC2)c(F)cc1Nc1ncc2c(n1)N(C1CCCC1)CC(F)(F)C(=O)N2C (stereo not drawn) [Compound 22, 4-((9-cyclopentyl-7,7-difluoro-5-methyl-6-oxo-6,7,8,9-tetrahydro-5H-pyrimido[4,5-b][1,4]diazepin-2-yl)amino)-N-(1-(2-((8-(2-((2-(2,6-dioxopiperidin-3-yl)-1,3-dioxoisoindolin-4-yl)amino)ethoxy)octyl)oxy)ethyl)piperidin-4-yl)-2-fluoro-5-methoxybenzamide] | ≤ 500 | 60 to 80 | –
12 | COc1cc(C(=O)NC2CCN(CCCCCCCCCCCCCCNc3cccc4c3C(=O)N(C3CCC(=O)NC3=O)C4=O)CC2)c(F)cc1Nc1ncc2c(n1)N(C1CCCC1)CC(F)(F)C(=O)N2C (stereo not drawn) [Compound 17, 4-((9-cyclopentyl-7,7-difluoro-5-methyl-6-oxo-5H,6H,7H,8H,9H-pyrimido[4,5-b][1,4]diazepin-2-yl)amino)-N-(1-(14-((2-(2,6-dioxopiperidin-3-yl)-1,3-dioxo-2,3-dihydro-1H-isoindol-4-yl)amino)tetradecyl)piperidin-4-yl)-2-fluoro-5-methoxybenzamide] | – | < 60 | –
13 | COc1cc(C(=O)NC2CCN(C(=O)CCCCNc3cccc4c3C(=O)N(C3CCC(=O)NC3=O)C4=O)C2)c(F)cc1Nc1ncc2c(n1)N(C1CCCC1)CC(F)(F)C(=O)N2C (stereo not drawn) [Compound 117, 4-((9-cyclopentyl-7,7-difluoro-5-methyl-6-oxo-6,7,8,9-tetrahydro-5H-pyrimido[4,5-b][1,4]diazepin-2-yl)amino)-N-(1-(5-((2-(2,6-dioxopiperidin-3-yl)-1,3-dioxoisoindolin-4-yl)amino)pentanoyl)pyrrolidin-3-yl)-2-fluoro-5-methoxybenzamide] | ≤ 50 | ≥ 80 | –
14 | COc1cc(C(=O)NC2CCN(CCOCCOCCOCCOCCNc3cccc4c3C(=O)N(C3CCC(=O)NC3=O)C4=O)CC2)c(F)cc1Nc1ncc2c(n1)N(C(C)C)CC(F)(F)C(=O)N2C (stereo not drawn) [Example 101, 4-((7,7-difluoro-9-isopropyl-5-methyl-6-oxo-6,7,8,9-tetrahydro-5H-pyrimido[4,5-b][1,4]diazepin-2-yl)amino)-N-(1-(14-((2-(2,6-dioxopiperidin-3-yl)-1,3-dioxoisoindolin-4-yl)amino)-3,6,9,12-tetraoxatetradecyl)piperidin-4-yl)-2-fluoro-5-methoxybenzamide] | ≤ 50 | ≥ 80 | –
15 | COc1cc(C(=O)NC2CCN(CCOCCOCCCc3cccc4c3C(=O)N(C3CCC(=O)NC3=O)C4=O)CC2)c(F)cc1Nc1ncc2c(n1)N(C1CCCC1)CC(F)(F)C(=O)N2C (stereo not drawn) [Compound 55, 4-((9-cyclopentyl-7,7-difluoro-5-methyl-6-oxo-6,7,8,9-tetrahydro-5H-pyrimido[4,5-b][1,4]diazepin-2-yl)amino)-N-(1-(2-(2-(3-(2-(2,6-dioxopiperidin-3-yl)-1,3-dioxoisoindolin-4-yl)propoxy)ethoxy)ethyl)piperidin-4-yl)-2-fluoro-5-methoxybenzamide] | ≤ 500 | 60 to 80 | –
16 | COc1cc(C(=O)N[C@H]2CCN(C(=O)CCC(=O)N3CCN(c4ccc5c(c4)C(=O)N(C4CCC(=O)NC4=O)C5=O)CC3)C2)c(F)cc1Nc1ncc2c(n1)N(C1CCCC1)CC(F)(F)C(=O)N2C (stereo partly drawn) [Compound 144, 4-((9-cyclopentyl-7,7-difluoro-5-methyl-6-oxo-6,7,8,9-tetrahydro-5H-pyrimido[4,5-b][1,4]diazepin-2-yl)amino)-N-((3S)-1-(4-(4-(2-(2,6-dioxopiperidin-3-yl)-1,3-dioxoisoindolin-5-yl)piperazin-1-yl)-4-oxobutanoyl)pyrrolidin-3-yl)-2-fluoro-5-methoxybenzamide] | ≤ 50 | ≥ 80 | –
17 | COc1cc(C(=O)NC2CCN(Cc3ccc(OCCNc4cccc5c4C(=O)N(C4CCC(=O)NC4=O)C5=O)cc3)CC2)c(F)cc1Nc1ncc2c(n1)N(C1CCCC1)CC(F)(F)C(=O)N2C (stereo not drawn) [Compound 40, 4-((9-cyclopentyl-7,7-difluoro-5-methyl-6-oxo-6,7,8,9-tetrahydro-5H-pyrimido[4,5-b][1,4]diazepin-2-yl)amino)-N-(1-(4-(2-((2-(2,6-dioxopiperidin-3-yl)-1,3-dioxoisoindolin-4-yl)amino)ethoxy)benzyl)piperidin-4-yl)-2-fluoro-5-methoxybenzamide] | ≤ 500 | 60 to 80 | –
